Tests used:
[1] = tested on: vasculature in the cochlea; conditions: in vivo; cited from earlier work
[2] = tested on: patients suffering from unilateral Meniere's disease; test: Local (intratympanic) administration of latanoprost to two patients suffering from Meniere's disease; assay type: in vivo, human; set-up: key to Tinnitus (grade): 0 = none; 1 = mild; 2 = moderate; 3 = marked; conditions: for Tinnitus (grade): After (7 or 13 days after start of treatment), before: 3; for Acoustic emissions (%) 1 kHz / Acoustic emissions (%) 2 kHz / Acoustic emissions (%) 3 kHz / Acoustic emissions (%) 4 kHz / Acoustic emissions (%) 5 kHz / Acoustic emissions (%) Total reproducibility: After; for Acoustic emissions (%) 1 kHz / Acoustic emissions (%) 2 kHz / Acoustic emissions (%) 3 kHz / Acoustic emissions (%) 4 kHz / Acoustic emissions (%) 5 kHz: before: 0; for Subjective hearing ability: after treatment
Method: […] About 0.3-0.4 ml of a sterile Xalatan® (0.005% latanoprost) solution was administered by intratympanic installation in close apposition to the round window after appropriate local anaesthesia. The patients were thereafter asked to lie on the side with the treated ear up for about 30 min to enhance the penetration of latanoprost into the internal ear. The patients had at least 40 decibel decrease in the audiogram at 0.5, 1 and 2 kHz frequency, at baseline before treatment with latanoprost. In addition they suffered from episodes of vertigo and nausea in combination with tinnitus. Audiograms, and cochlear emissions were recorded before the treatment and at the 7th or 13th day after the start of the treatment, and information about the subjective symptoms were collected.

[3] = tested on: patients suffering from unilateral Meniere's disease; test: Randomised, double-masked, placebo-controlled crossover clinical trial with latanoprost in Meniere's disease; assay type: in vivo, human; conditions: for vertigo, visual analogue scale: decreasing values reflecting improvement
Method: During the priority year, a randomised, double-masked, placebo-controlled clinical trial was performed by the inventors of the present patent application. Nine patients (5 males and 4 females; age 39-65 years) suffering from unilateral Meniere's disease were treated daily for three consecutive days with latanoprost (around 50 micrograms/ml) or placebo adopting a crossover design. Accordingly, each patient was treated with both latanoprost and placebo in random order. Each treatment period lasted for 3 days, and after that the patients were examined at days 5 and 15 from the start of the treatment. Approximately 1 month elapsed between the two treatment periods (washout period). The treatment was given by intratympanic injection (around 0.2-0.8 ml) into the middle ear essentially as described above. Several parameters/symptoms were registered and followed, in particular the following: Pure tone average (decibels), discrimination value (%), tinnitus loudness (decibels), and by using visual analogue scale technique; subjective hearing ability, tinnitus and vertigo. The patients recorded the three last mentioned parameters daily, and the means over the periods 2-5 days and 2-15 days after initiation of treatment with latanoprost and placebo were computed.
Such improvement was never observed during placebo treatment. At day 15 the mean discrimination value after latanoprost treatment was 68.2±7.2%, while it was 52.9±1.5% after placebo treatment, the difference of 29% being statistically significant at the p<0.05 level. Likewise, a statistically significant (p<0.01) improvement in pure tone average value at day 15 was found after latanoprost treatment in comparison to placebo, the values being 58.9±3.6 and 64.3±3.5 decibels, respectively (a lower value representing improvement). Finally, at least seven out of the nine patients experienced less vertigo both during the immediate period (days 2-5) after initiation of the latanoprost treatment as well as during a longer period (days 2-15) after the initiation of the latanoprost treatment. The values on the visual analogue scale (in mm; decreasing values reflecting improvement, i.e. less sensation of vertigo) were as follows: Days 2-5 latanoprost treatment: 22.4±9.1, and placebo treatment: 33.5±10.8 (p<0.05); Days 2-15 latanoprost treatment: 24.2±10.0 and placebo treatment: 34.2±11.4 (p<0.05).

[4] = tested on: endolymphatic duct structures / inner ear of pigmented guinea pigs; test: Intratympanic administration of latanoprost to guinea pigs: tolerability, brain stem audiometry and morphology of the endolymphatic duct structures; assay type: in vivo, guinea pig
Method: Four pigmented guinea pigs of either sex weighing around 200-300 grams were anaesthetised with pentobarbital for intratympanic (into the middle ear) administration of latanoprost, and for brain stem audiometric measurements. The audiometric measurements were carried out at 8, 16 and 32 kHz frequency before and after the administration of latanoprost (58 μg/ml; a total of 250 μl/injection corresponding to about 14 μg latanoprost) and the vehicle. Latanoprost was administered once daily for three days into one ear, while the other ear received a similar injection of the vehicle only, and on the fourth day the animals were euthanatized with an overdose of the anaesthetic. The middle ears were dissected and the mucus membranes were inspected. Thereafter the inner ear was removed and the labyrinth was perfusion fixated through the oval and round windows with a 3% buffered glutaraldehyde solution. The tissues were then immersion fixated for about 24 hours in the same solution, and decalcified in 0.1 M sodium EDTA solution for about 2 weeks. The tissues were thereafter prepared according to routine techniques for light microscopy, and ultrathin sections of Epon-embedded tissue pieces were cut for transmission electron microscopy.
Most importantly, in several animals clear-cut changes in the morphology around the endolymphatic duct were detected. […] These findings were corroborated by 3 persons. […] Similar effects have previously been seen in the ciliary muscle of the eye after topical treatment with latanoprost and other prostaglandins (Lütjen-Drecoll and Tamm, 1989; Lindsey et al., 1998; Stjernschantz et al., 1998).

[5] = tested on: patients with Meniere's disease; conditions: two patients with Meniere's disease, with furosemide; cited from earlier work
[6] = two patients, after administration
[7] = visual analogue scale, latanoprost vs placebo

## CCCCC[C@H](O)/C=C/[C@@H]1[C@@H](C/C=C\CCCC(=O)O)[C@@H](O)C[C@H]1O [PGF2α]
[1]
  effect on the vasculature in the cochlea: no effect

## CC(C)OC(=O)CCC/C=C\C[C@@H]1[C@@H](CC[C@@H](O)CCc2ccccc2)[C@H](O)C[C@@H]1O [latanoprost, 13,14-dihydro-17-phenyl-18,19,20-trinor-PGF2α-isopropyl ester]
[2]; patient one
  Tinnitus (grade): 1
  Acoustic emissions (%) 1 kHz: 45%
  Acoustic emissions (%) 2 kHz: 0
  Acoustic emissions (%) 3 kHz: 42%
  Acoustic emissions (%) 4 kHz: 0
  Acoustic emissions (%) 5 kHz: 0
  Subjective hearing ability: Improved
[2]; patient one, before: 5
  Acoustic emissions (%) Total reproducibility: 37%
[2]; patient two
  Tinnitus (grade): 2
  Acoustic emissions (%) 1 kHz: 0%
  Acoustic emissions (%) 2 kHz: 57%
  Acoustic emissions (%) 3 kHz: 0%
  Acoustic emissions (%) 4 kHz: 0%
  Acoustic emissions (%) 5 kHz: 0%
  Subjective hearing ability: Improved
[2]; patient two, before: 10
  Acoustic emissions (%) Total reproducibility: 37%
[2]; [6]
  audiograms: no significant change
  cochlear emissions: significantly improved
  patients' condition with respect to the tinnitus and hearing ability: marked improvement
[3]; Days 2-5, placebo 33.5±10.8, p<0.05
  vertigo, visual analogue scale: 22.4±9.1 mm
[3]; Days 2-15, placebo 34.2±11.4, p<0.05
  vertigo, visual analogue scale: 24.2±10.0 mm
[3]; both days 2-5 and days 2-15 after initiation of treatment
  patients (out of nine) who experienced less vertigo: at least seven
[3]; clinical trial
  cochlear emissions: variable results
[3]; day 15, p<0.05
  difference in mean discrimination value versus placebo: 29%
[3]; day 15, placebo 52.9±1.5%, p<0.05
  mean discrimination value: 68.2±7.2%
[3]; day 15, placebo 64.3±3.5, p<0.01, lower value representing improvement
  pure tone average value: 58.9±3.6 decibels
[3]; in three of the nine patients, after latanoprost treatment
  improvement in discrimination value: 25-50%
[3]; latanoprost vs placebo
  tinnitus loudness: No statistically significant change
[3]; [7]
  Subjective hearing ability: No statistically significant change
  subjective experience of tinnitus: No statistically significant change
[4]; guinea pig, 8, 16 and 32 kHz, before and after intratympanic administration
  brain stem audiograms: no changes that could be attributed to the treatment
[4]; guinea pig, in several animals, zone around fibroblasts in loose connective tissue surrounding the duct
  morphology around the endolymphatic duct: reduced density of the extracellular matrix
[4]; guinea pig, intratympanic, about 14 μg once daily for three days
  morphological changes in the cochlea including the organ of Corti with the hair cells: no morphological changes
[4]; guinea pig, intratympanic, about 14 μg once daily for three days, examined day 4
  inflammatory changes in the mucous membranes of the middle ear or in the tympanic membrane: No inflammatory changes
[4]; guinea pig, intratympanic, once daily for three days
  tolerability: well tolerated

## COc1ccc2c(c1)c(CC(=O)O)c(C)n2C(=O)c1ccc(Cl)cc1 [indomethacin]
[5]
  effect on the discrimination score: block the effect of furosemide

Reference: patent US7498360B2, “Method and compositions for local treatment of Meniere's disease, tinnitus and/or hearing loss” (Synphora AB, priority 2001, dated 2009)
